{"source": "patent US9981916B2", "about": "(Genentech, Inc., priority 2013, dated 2018)"}
{"target": "T1, RORc ligand binding domain (Homo sapiens, UniProt P51449)", "T1 construct": "host or cells: E. coli", "T1 sequence (P51449 269-508 limits assumed)": "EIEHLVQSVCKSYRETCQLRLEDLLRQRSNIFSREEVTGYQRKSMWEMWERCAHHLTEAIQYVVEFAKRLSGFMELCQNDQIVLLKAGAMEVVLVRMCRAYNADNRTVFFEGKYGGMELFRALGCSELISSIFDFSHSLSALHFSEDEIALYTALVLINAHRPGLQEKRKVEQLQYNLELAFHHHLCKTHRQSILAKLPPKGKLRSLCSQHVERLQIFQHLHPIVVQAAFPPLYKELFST", "experiment": "In vitro RORc ligand binding assay (25-[3H]hydroxycholesterol displacement, filter binding)", "settings": "6 nM 25-[3H]hydroxycholesterol, 0.6 ug/mL RORc receptor, 3 h at 25° C.", "summary_of_the_method": "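Filter-binding displacement of 6 nM 25-[3H]hydroxycholesterol from RORc receptor (0.6 ug/mL) in 50 mM HEPES pH 7.4, 150 mM NaCl, 5 mM MgCl2, 1 mM DTT, 0.01% BSA, 5% DMSO; 3 h at 25° C. NSB defined with 1 uM 25-hydroxycholesterol; scintillation counting gave Kiapp, IC50 or % inhibition (screening at 1 and 10 uM).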", "units": {"IC50": "nM"}}
{"smiles": "CC(=O)OCCN(C[C@@]12CC[C@@H](c3cc(-c4c(F)cccc4F)nnc31)C2(C)C)C(C)=O", "note": "[Example 290, 2-(N-(((5R,8S)-3-(2,6-difluorophenyl)-9,9-dimethyl-5,6,7,8-tetrahydro-5,8-methanocinnolin-8-yl)methyl)acetamido)ethyl acetate]", "IC50": 121}
{"smiles": "CC1(C)[C@@H]2CC[C@@]1(Cn1ccnc1)c1nnc(-c3ccccc3F)cc12", "note": "[Example 17, (5S,8R)-3-(2-fluorophenyl)-8-(1H-imidazol-1-ylmethyl)-9,9-dimethyl-5,6,7,8-tetrahydro-5,8-methanocinnoline]", "IC50": 3170}
{"smiles": "CC1(C)[C@H]2CC[C@]1(Cc1nnc(CO)o1)c1nnc(-c3c(F)cccc3F)cc12", "note": "(stereo in doubt) [Example 76, (5-{[(5R,8R)-3-(2,6-difluorophenyl)-9,9-dimethyl-6,7-dihydro-5,8-methanocinnolin-8(5H)-yl]methyl}-1,3,4-oxadiazol-2-yl)methanol]", "IC50": 388}
{"smiles": "CC1CN(C(=O)[C@]23CC[C@H](c4cc(-c5c(F)cccc5F)nnc42)C3(C)C)C1", "note": "[Example 100, [(5S,8S)-3-(2,6-difluorophenyl)-9,9-dimethyl-6,7-dihydro-5,8-methanocinnolin-8(5H)-yl](3-methylazetidin-1-yl)methanone]", "IC50": 70}
{"smiles": "COC(=O)c1ccc(COC[C@]23CC[C@H](c4cc(-c5ccccc5F)nnc42)C3(C)C)cc1", "note": "[Example 63, methyl 4-({[(5S,8S)-3-(2-fluorophenyl)-9,9-dimethyl-6,7-dihydro-5,8-methanocinnolin-8(5H)-yl]methoxy}methyl) benzoate]", "IC50": 136}
{"smiles": "CC1(C)[C@H]2CC[C@]1(COc1cncc(=O)[nH]1)c1nnc(-c3c(F)cccc3F)cc12", "note": "[Example 330, 6-(((5R,8R)-3-(2,6-difluorophenyl)-9,9-dimethyl-5,6,7,8-tetrahydro-5,8-methanocinnolin-8-yl)methoxy)pyrazin-2(1H)-one]", "IC50": 1980}
{"smiles": "COC1CN(C(=O)[C@@]23CC[C@@H](c4cc(-c5c(F)cccc5F)nnc42)C3(C)C)C1", "note": "[Example 188, ((5R,8R)-3-(2,6-difluorophenyl)-9,9-dimethyl-5,6,7,8-tetrahydro-5,8-methanocinnolin-8-yl)(3-methoxyazetidin-1-yl)methanone]", "IC50": 2460}
{"smiles": "CC1(C)[C@@H]2CC[C@@]1(COCc1ccccc1)c1nnc(-c3c(F)cccc3Cl)cc12", "note": "[Example 21, (5S,8S)-8-[(benzyloxy)methyl]-3-(2-chloro-6-fluorohenyl)-9,9-dimethyl-5,6,7,8-tetrahydro-5,8-methanocinnoline]", "IC50": 22}
{"smiles": "CC1(C)[C@H]2CC[C@]1(COc1ccccn1)c1nnc(-c3c(F)cccc3F)cc12", "note": "[Example 120, (5R,8R)-3-(2,6-difluorophenyl)-9,9-dimethyl-8-[(pyridin-2-yloxy)methyl]-5,6,7,8-tetrahydro-5,8-methanocinnoline]", "IC50": 126}
{"smiles": "CC1(C)[C@@H]2CC[C@@]1(C(=O)N1CCOCC1)c1nnc(-c3c(F)cccc3F)cc12", "note": "[Example 54, [(5S,8S)-3-(2,6-difluorophenyl)-9,9-dimethyl-6,7-dihydro-5,8-methanocinnolin-8(5H)-yl](morpholin-4-yl)methanone]", "IC50": 42}
{"smiles": "CC1(C)[C@@H]2CC[C@@]1(C(=O)NC1CCC1)c1nnc(-c3c(F)cccc3F)cc12", "note": "[Example 201, (5S,8S)-N-cyclobutyl-3-(2,6-difluorophenyl)-9,9-dimethyl-5,6,7,8-tetrahydro-5,8-methanocinnoline-8-carboxamide]", "IC50": 759}
{"smiles": "CC1(C)[C@@H]2CC[C@@]1(CO)c1nnc(-c3c(F)cccc3Cl)cc12", "note": "[Example 23, [(5S,8S)-3-(2-chloro-6-fluorophenyl)-9,9-dimethyl-6,7-dihydro-5,8-methanocinnolin-8(5H)-yl]methanol]", "IC50": 381}
{"smiles": "CC1(C)[C@H]2CC[C@]1(C(=O)N1CCc3cc(S(C)(=O)=O)ccc31)c1nnc(-c3ccccc3F)cc12", "note": "(stereo in doubt) [Example 170, ((5R,8R)-3-(2-fluorophenyl)-9,9-dimethyl-5,6,7,8-tetrahydro-5,8-methanocinnolin-8-yl)(5-(methylsulfonyl)indolin-1-yl)methanone]", "IC50": 3890}
{"smiles": "CC1(C)[C@@H]2CC[C@@]1(C(=O)NCc1ccc(F)cc1)c1nnc(-c3ccccc3F)cc12", "note": "[Example 133, (5S,8S)-N-(4-fluorobenzyl)-3-(2-fluorophenyl)-9,9-dimethyl-5,6,7,8-tetrahydro-5,8-methanocinnoline-8-carboxamide]", "IC50": 876}
{"smiles": "CC1(C)[C@H]2CC[C@]1(N1CCOC1=O)c1nnc(-c3c(F)cccc3F)cc12", "note": "[Example 257, 3-((5R,8R)-3-(2,6-difluorophenyl)-9,9-dimethyl-5,6,7,8-tetrahydro-5,8-methanocinnolin-8-yl)oxazolidin-2-one]", "IC50": 438}
{"smiles": "CC1(C)[C@H]2CC[C@]1(N1CCNC1=O)c1nnc(-c3c(F)cccc3F)cc12", "note": "[Example 184, 1-((5R,8R)-3-(2,6-difluorophenyl)-9,9-dimethyl-5,6,7,8-tetrahydro-5,8-methanocinnolin-8-yl)imidazolidin-2-one]", "IC50": 171}
{"smiles": "CC(NC(=O)[C@@]12CC[C@@H](c3cc(-c4ccccc4F)nnc31)C2(C)C)c1ccccc1", "note": "(stereo partly drawn) [Example 183, (5R,8R)-3-(2-fluorophenyl)-9,9-dimethyl-N-(1-phenylethyl)-5,6,7,8-tetrahydro-5,8-methanocinnoline-8-carboxamide]", "IC50": 1000}
{"smiles": "C=C1C[C@@H]2c3cc(-c4ccccc4F)nnc3[C@@]1(C)C2(C)C", "note": "[Example 51, (5S,8R)-3-(2-fluorophenyl)-8,9,9-trimethyl-7-methylidene-5,6,7,8-tetrahydro-5,8-methanocinnoline]", "IC50": 657}
{"smiles": "CC1(C)[C@H]2CC[C@]1(C(=O)N1CCC1)c1nnc(Oc3c(F)cccc3F)cc12", "note": "[Example 337, azetidin-1-yl((5R,8R)-3-(2,6-difluorophenoxy)-9,9-dimethyl-5,6,7,8-tetrahydro-5,8-methanocinnolin-8-yl)methanone]", "IC50": 540}
{"smiles": "Cc1ocnc1[C@@]12CC[C@@H](c3cc(-c4c(F)cccc4F)nnc31)C2(C)C", "note": "[Example 193, 4-((5R,8S)-3-(2,6-difluorophenyl)-9,9-dimethyl-5,6,7,8-tetrahydro-5,8-methanocinnolin-8-yl)-5-methyloxazole]", "IC50": 68}
{"smiles": "CCN(C[C@]12CC[C@H](c3cc(-c4c(F)cccc4F)nnc31)C2(C)C)C(=O)CCC(=O)N(C)C", "note": "[Example 344, N1-(((5S,8R)-3-(2,6-difluorophenyl)-9,9-dimethyl-5,6,7,8-tetrahydro-5,8-methanocinnolin-8-yl)methyl)-N1-ethyl-N4,N4-dimethylsuccinamide]", "IC50": 31}
{"smiles": "CCN(CC(N)=O)C[C@@]12CC[C@@H](c3cc(-c4c(F)cccc4F)nnc31)C2(C)C", "note": "[Example 304, 2-((((5R,8S)-3-(2,6-difluorophenyl)-9,9-dimethyl-5,6,7,8-tetrahydro-5,8-methanocinnolin-8-yl)methyl)(ethyl)amino) acetamide]", "IC50": 56}
{"smiles": "CC1(C)[C@H]2CC[C@]1(Cc1noc(O)n1)c1nnc(-c3c(F)cccc3F)cc12", "note": "[Example 58, 3-{[(5R,8R)-3-(2,6-difluorophenyl)-9,9-dimethyl-6,7-dihydro-5,8-methanocinnolin-8(5H)-yl]methyl}-1,2,4-oxadiazol-5-ol]", "IC50": 1050}
{"smiles": "CC1(C)[C@H]2CC[C@]1(Cn1ccccc1=O)c1nnc(-c3c(F)cccc3F)cc12", "note": "[Example 121, 1-{[(5R,8S)-3-(2,6-difluorophenyl)-9,9-dimethyl-6,7-dihydro-5,8-methanocinnolin-8(5H)-yl]methyl}pyridin-2(1H)-one]", "IC50": 199}
{"smiles": "CCN(C[C@@]12CC[C@@H](c3cc(-c4c(F)cccc4F)nnc31)C2(C)C)S(=O)(=O)CCC(F)(F)F", "note": "[Example 345, N-(((5R,8S)-3-(2,6-difluorophenyl)-9,9-dimethyl-5,6,7,8-tetrahydro-5,8-methanocinnolin-8-yl)methyl)-N-ethyl-3,3,3-trifluoropropane-1-sulfonamide]", "IC50": 11}
{"smiles": "CC1(C)[C@@H]2CC[C@@]1(C(=O)NC1CCCC1)c1nnc(-c3c(F)cccc3F)cc12", "note": "[Example 206, (5S,8S)-N-cyclopentyl-3-(2,6-difluorophenyl)-9,9-dimethyl-5,6,7,8-tetrahydro-5,8-methanocinnoline-8-carboxamide]", "IC50": 1230}
{"smiles": "CC1(C)[C@H]2CC[C@]1(C(=O)N1CC(O)C1)c1nnc(-c3c(F)cccc3F)cc12", "note": "[Example 199, ((5R,8R)-3-(2,6-difluorophenyl)-9,9-dimethyl-5,6,7,8-tetrahydro-5,8-methanocinnolin-8-yl)(3-hydroxyazetidin-1-yl)methanone]", "IC50": 461}
{"smiles": "CC1(C)[C@H]2CC[C@]1(NCC(F)F)c1nnc(-c3c(F)cccc3F)cc12", "note": "[Example 307, (5R,8R)-N-(2,2-difluoroethyl)-3-(2,6-difluorophenyl)-9,9-dimethyl-5,6,7,8-tetrahydro-5,8-methanocinnolin-8-amine]", "IC50": 71}
{"smiles": "COc1nnc([C@@]23CC[C@@H](c4cc(-c5c(F)cccc5F)nnc42)C3(C)C)o1", "note": "[Example 105, (5R,8R)-3-(2,6-difluorophenyl)-8-(5-methoxy-1,3,4-oxadiazol-2-yl)-9,9-dimethyl-5,6,7,8-tetrahydro-5,8-methanocinnoline]", "IC50": 261}
{"smiles": "CC1(O)CCN(C(=O)[C@]23CC[C@H](c4cc(-c5c(F)cccc5F)nnc42)C3(C)C)C1", "note": "(stereo partly drawn) [Example 219, ((5S,8S)-3-(2,6-difluorophenyl)-9,9-dimethyl-5,6,7,8-tetrahydro-5,8-methanocinnolin-8-yl)(3-hydroxy-3-methylpyrrolidin-1-yl)methanone]", "IC50": 1100}
